Test results as given in PubChem BioAssay AID2060491 (Molecular Pharmacology Branch, DTP, NCI, 2025).
Each block holds one compound with its values, some of them ahead of it.

Test system: 857933-349-R-J2-PDC complex spheroids, viability
Experiment: Anticancer human tumor 857933-349-R-J2-PDC patient-derived colon adenocarcinoma cell line growth inhibition [GQUAD]
Conditions: for IC50: curve of first compound; for viability, T/C: stronger effect = lower value
Source text: DNA G-quadruplex Stabilizer Agents in Combinations in Complex Spheroids
A high-throughput screen of multi-cell type tumor spheroids was designed to identify active combinations of DNA G-quadruplex stabilizer agents and targeted small molecules. Complex spheroids include a stromal component modeled by human endothelial cells (HUVEC) and fibroblasts modeled by human mesenchymal stem cells (MSCs). The concentration ranges selected for each drug and investigational agent were based upon clinically achievable concentrations if the clinical Cmax of the agent was known.
Compounds. The drugs and investigational agents: pidnarulex (CX-5461; NSC782164), APTO-253 (NSC789042), BRACO-19 (NSC847499), peposertib (NSC802822), ceralasertib (NSC780249), elimusertib (NSC800525), camonsertib (NSC841442), AZD-1390 (NSC803789), olaparib (NSC753686), talazoparib (NSC767125), ART-558 (NSC835418), sotorasib (NSC818433), MRTX-1133 (NSC836407), SN-38 (NSC673596), topotecan (NSC609699), etoposide (NSC141540), doxorubicin (NSC123127), gemcitabine (NSC613327), 5-fluorouracil (NSC19893), paclitaxel (NSC125973), vemurafenib (NSC761431), panobinostat (NSC761190), R-306465 (JNJ-16241199; NSC773264), adavosertib (NSC754352), TP-3654 (NSC805149), carboplatin (NSC241240), KSQ-4279 (NSC840948), and staurosporine (NSC755774) were obtained from the National Cancer Institute (NCI) Developmental Therapeutics Program Chemical Repository (34). The FDA-approved anticancer drug set is available from the NCI Developmental Therapeutics Program. […] The stock solutions were prepared in dimethyl sulfoxide (DMSO, Sigma-Aldrich, St. Louis, MO, cat. D2650) at 800-fold the tested concentration and stored at -70 degrees C prior to their use. All drugs and investigational agents were tested over a range starting from a high concentration at or near the clinical Cmax and decreasing in half-log increments. If the clinical Cmax for an agent had not been determined, the highest concentration tested was 10 microM.
2.3 Cell Culture. All cells were maintained in an incubator at 37 degrees C and 5% CO2 with 95% humidity. The PDC lines were cultured according to standard operating procedures established by the NCI PDMR. All PDCs were thawed and cultured in Matrigel-coated flasks prepared with a working solution of 1X Ham's F-12 nutrient mix, without supplementation (Invitrogen, cat. 11765054), 100 U/mL penicillin-streptomycin (Invitrogen, cat. 15140122), and 2.5% Matrigel (Corning Inc., cat. 354248) for the first three passages. The 857933-349-R-J2-PDC line was cultured in 6C/Colon 1B media, which includes advanced DMEM/F-12 (Thermo Fisher Scientific, cat. 12634028), 10 mM HEPES (Thermo Fisher Scientific, cat. 15630080), 1X GlutaMAX supplement (Thermo Fisher Scientific, cat. 35050061), 0.1 mg/mL primocin (InvivoGen, cat. ant-pm-2), 10% defined fetal bovine serum, heat inactivated (HyClone Laboratories Inc., cat. SH30070.03HI), 50% L-WRN conditioned media (ATCC, cat. CRL-3276), 1.25 mM N-Acetyl-L-cysteine (Sigma-Aldrich, cat. A9165), 10 mM nicotinamide (Sigma-Aldrich, cat. N0636), 1X B-27 supplement (Thermo Fisher Scientific, cat. 17504044), 1X N-2 supplement (Thermo Fisher Scientific, cat. 17502048), 10 microM Y-27632 dihydrochloride (Tocris Bioscience, cat. 1254), and 50 ng/mL human EGF recombinant protein (Thermo Fisher Scientific, cat. PHG0311). The 485176-168-R4-J1-PDC line was cultured in Panc media, which includes all 6C/Colon 1B media components plus 100 ng/mL human FGF-10 (Thermo Fisher Scientific, cat. 100-26), 500 nM SB-431542 (Selleckchem, cat. S1067), and gastrin (Tocris, cat. 3006).
[…]

[1] = second compound 0.0316 µM, first compound 0.0316 µM
[2] = second compound 0.0316 µM, first compound 0.1 µM
[3] = second compound 0.0316 µM, first compound 0.316 µM
[4] = second compound 0.0316 µM, first compound 1 µM
[5] = second compound 0.0316 µM, first compound 3.16 µM
[6] = second compound 0.0316 µM, first compound 10 µM
[7] = second compound 0.1 µM, first compound 0.0316 µM
[8] = second compound 0.1 µM, first compound 0.1 µM
[9] = second compound 0.1 µM, first compound 0.316 µM
[10] = second compound 0.1 µM, first compound 1 µM
[11] = second compound 0.1 µM, first compound 3.16 µM
[12] = second compound 0.1 µM, first compound 10 µM
[13] = second compound 0.316 µM, first compound 0.0316 µM
[14] = second compound 0.316 µM, first compound 0.1 µM
[15] = second compound 0.316 µM, first compound 0.316 µM
[16] = second compound 0.316 µM, first compound 1 µM
[17] = second compound 0.316 µM, first compound 3.16 µM
[18] = second compound 0.316 µM, first compound 10 µM
[19] = second compound 1 µM, first compound 0.0316 µM
[20] = second compound 1 µM, first compound 0.1 µM
[21] = second compound 1 µM, first compound 0.316 µM
[22] = second compound 1 µM, first compound 1 µM
[23] = second compound 1 µM, first compound 3.16 µM
[24] = second compound 1 µM, first compound 10 µM
[25] = second compound 3.16 µM, first compound 0.0316 µM
[26] = second compound 3.16 µM, first compound 0.1 µM
[27] = second compound 3.16 µM, first compound 0.316 µM
[28] = second compound 3.16 µM, first compound 1 µM
[29] = second compound 3.16 µM, first compound 3.16 µM
[30] = second compound 3.16 µM, first compound 10 µM
[31] = second compound 10 µM, first compound 0.0316 µM
[32] = second compound 10 µM, first compound 0.1 µM
[33] = second compound 10 µM, first compound 0.316 µM
[34] = second compound 10 µM, first compound 1 µM
[35] = second compound 10 µM, first compound 3.16 µM
[36] = second compound 10 µM, first compound 10 µM
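Note: spheroids exposed to compounds for one week before readout.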
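Throughout, for viability, T/C: percent viability relative to vehicle DMSO wells taken as 100%.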

- IC50 (second compound 0.0316 µM): 5200 nM
- IC50 (second compound 0.1 µM): 1720 nM
- IC50 (second compound 0.316 µM): < 31.6 nM
- IC50 (second compound 1 µM): < 31.6 nM
- IC50 (second compound 3.16 µM): < 31.6 nM
- IC50 (second compound 10 µM): < 31.6 nM
Structure (SMILES): CCCS(=O)(=O)Nc1ccc(F)c(C(=O)c2c[nH]c3ncc(-c4ccc(Cl)cc4)cc23)c1F + Cc1cnc(CNC(=O)c2c(=O)c3ccc(N4CCCN(C)CC4)nc3n3c2sc2ccccc23)cn1
- viability, T/C [1]: 85.1%
- viability, T/C [2]: 88.8%
- viability, T/C [3]: 77.6%
- viability, T/C [4]: 83.8%
- viability, T/C [5]: 86.5%
- viability, T/C [6]: 4.81%
- viability, T/C [7]: 56.2%
- viability, T/C [8]: 58.5%
- viability, T/C [9]: 52.4%
- viability, T/C [10]: 48.9%
- viability, T/C [11]: 47.5%
- viability, T/C [12]: 3.42%
- viability, T/C [13]: 24%
- viability, T/C [14]: 20.3%
- viability, T/C [15]: 19.5%
- viability, T/C [16]: 12.1%
- viability, T/C [17]: 5.66%
- viability, T/C [18]: 1.91%
- viability, T/C [19]: 3.43%
- viability, T/C [20]: 2.87%
- viability, T/C [21]: 2.84%
- viability, T/C [22]: 2.64%
- viability, T/C [23]: 3.04%
- viability, T/C [24]: 1.06%
- viability, T/C [25]: 2.4%
- viability, T/C [26]: 2.36%
- viability, T/C [27]: 2.38%
- viability, T/C [28]: 1.58%
- viability, T/C [29]: 2.13%
- viability, T/C [30]: 0.14%
- viability, T/C [31]: 0.2%
- viability, T/C [32]: 0.21%
- viability, T/C [33]: 0.23%
- viability, T/C [34]: 0.22%
- viability, T/C [35]: 0.23%
- viability, T/C [36]: 0.22%

Structure (SMILES): CC(=O)O[C@H]1C(=O)[C@@]2(C)[C@H]([C@H](OC(=O)c3ccccc3)[C@]3(O)C[C@H](OC(=O)[C@H](O)[C@@H](NC(=O)c4ccccc4)c4ccccc4)C(C)=C1C3(C)C)[C@]1(OC(C)=O)CO[C@@H]1C[C@@H]2O + CN(C)c1ccc(Nc2c3ccc(NC(=O)CCN4CCCC4)cc3nc3cc(NC(=O)CCN4CCCC4)ccc23)cc1
- IC50 (second compound 0.0316 µM): 66.3 nM
- IC50 (second compound 0.1 µM): 62.7 nM
- IC50 (second compound 0.316 µM): 62.1 nM
- IC50 (second compound 1 µM): 60.2 nM
- IC50 (second compound 3.16 µM): 55.1 nM
- IC50 (second compound 10 µM): < 31.6 nM
- viability, T/C [1]: 75%
- viability, T/C [2]: 36%
- viability, T/C [3]: 22.3%
- viability, T/C [4]: 23.4%
- viability, T/C [5]: 23.6%
- viability, T/C [6]: 27.1%
- viability, T/C [7]: 75.5%
- viability, T/C [8]: 33.7%
- viability, T/C [9]: 22.2%
- viability, T/C [10]: 23%
- viability, T/C [11]: 22.6%
- viability, T/C [12]: 26.4%
- viability, T/C [13]: 70.9%
- viability, T/C [14]: 35.2%
- viability, T/C [15]: 19.6%
- viability, T/C [16]: 20.5%
- viability, T/C [17]: 24%
- viability, T/C [18]: 27.2%
- viability, T/C [19]: 71.6%
- viability, T/C [20]: 33%
- viability, T/C [21]: 22.1%
- viability, T/C [22]: 21.3%
- viability, T/C [23]: 26.2%
- viability, T/C [24]: 26.8%
- viability, T/C [25]: 67.4%
- viability, T/C [26]: 31.6%
- viability, T/C [27]: 26%
- viability, T/C [28]: 24.5%
- viability, T/C [29]: 27.2%
- viability, T/C [30]: 30.9%
- viability, T/C [31]: 54.9%
- viability, T/C [32]: 43.9%
- viability, T/C [33]: 38.6%
- viability, T/C [34]: 33.4%
- viability, T/C [35]: 34.3%
- viability, T/C [36]: 41.4%
